Reference: ChEMBL document CHEMBL2429838, “Synthesis and antitumor activity evaluation of 2-arylisoquinoline-1,3(2H,4H)-diones in vitro and in vivo” (Med Chem Res, 2013)

Tests used:
A549 = assay: Cytotoxicity against human A549 cells after 48 hrs by MTT assay; assay type: functional, cell-based; conditions: A549, 48 h
PC-3 = assay: Cytotoxicity against human PC3 cells after 48 hrs by MTT assay; assay type: functional, cell-based; conditions: PC-3, 48 h
A-431 = assay: Cytotoxicity against human A431 cells after 48 hrs by MTT assay; assay type: functional, cell-based; conditions: A-431, 48 h
PANC-1 [1] = assay: Antitumor activity against human PANC1 cells xenografted in po dosed mouse assessed as tumor growth inhibition administered qd for 13 days measured up to 21 days; assay type: functional, organism-based
PANC-1 [2] = assay: Antitumor activity against human PANC1 cells xenografted in mouse assessed as tumor growth inhibition at 25 mg/kg, po qd for 13 days measured up to 21 days; assay type: functional; conditions: read-out: TGI
PANC-1 [3] = assay: Antitumor activity against human PANC1 cells xenografted in mouse assessed as tumor growth inhibition at 5 mg/kg, po qd for 13 days measured up to 21 days; assay type: functional; conditions: read-out: TGI

SMILES | IC50 (A549) [µM] | IC50 (PC-3) [µM] | IC50 (A-431) [µM] | TGI (PANC-1 [1]) | inhibition in vivo at 25 mg/kg (PANC-1 [2]) [%] | inhibition in vivo at 5 mg/kg (PANC-1 [3]) [%]
COc1ccc(N2C(=O)Cc3cc(OC)cc(OC)c3C2=O)cc1 | > 100 | > 100 | 78.9 | – | – | –
COc1cc2c(c(OC)c1OC)C(=O)N(c1ccc3nc(NC(=O)C4CC4)sc3c1)C(=O)C2 | 16.2 | 20.6 | 7.58 | – | – | –
COc1cc2c(c(OC)c1)C(=O)N(c1ccc(C(F)(F)F)cc1)C(=O)C2 | 32.1 | 17.1 | 32.8 | – | – | –
O=C(Nc1nc2ccc(N3C(=O)Cc4ccc(F)cc4C3=O)cc2s1)C1CC1 | 12.6 | 11.7 | 8.64 | – | – | –
O=C(Nc1nc2ccc(N3C(=O)Cc4ccccc4C3=O)cc2s1)C1CC1 | 22.3 | 16.7 | 46.8 | – | – | –
COc1cc2c(c(OC)c1)C(=O)N(c1ccc3nc(NC(=O)C4CC4)sc3c1)C(=O)C2 | 12.7 | 7.7 | 7.01 | Dose-dependent effect | 31.5 | 23.7
C#Cc1cccc(N2C(=O)Cc3cc(OC)cc(OC)c3C2=O)c1 | > 100 | 28.9 | 60.4 | – | – | –
COc1cc2c(c(OC)c1)C(=O)N(c1ccc(C)cc1)C(=O)C2 | 43.6 | 21 | 47.6 | – | – | –
COc1cc2c(c(OC)c1)C(=O)N(c1cccc(C(F)(F)F)c1)C(=O)C2 | > 100 | 45.3 | 62.5 | – | – | –
COc1ccc2c(c1)CC(=O)N(c1ccc3nc(NC(=O)C4CC4)sc3c1)C2=O | 20.7 | 10.5 | 12 | – | – | –
COc1cc2c(c(OC)c1)C(=O)N(c1ccc3nc(NC(C)=O)sc3c1)C(=O)C2 | 20.5 | 11.2 | 11.9 | – | – | –
O=C(Nc1ccc2nc(NC(=O)C3CC3)sc2c1)c1c(Cl)cccc1Cl | 9 | 2.01 | – | – | – | –
